According to ChEMBL document CHEMBL1287753, “Synthesis of all-cis 2,5-imino-2,5-dideoxy-fucitol and its evaluation as a potent fucosidase and galactosidase inhibitor” (Bioorg Med Chem Lett, 2010):

Tests used:
[1] = Inhibition of alpha-fucosidase
[2] = Inhibition of beta-mannosidase
[3] = Inhibition of alpha-glucosidase
[4] = Inhibition of alpha-mannosidase
[5] = Inhibition of alpha-galactosidase
[6] = Inhibition of beta-glucosidase
[7] = Inhibition of beta-galactosidase

Row | SMILES | Ki ([1]; read-out: Ki) | IC50 [4] | IC50 [6] | Ki [3] | IC50 [5] | other results
1 | C[C@@H]1NC[C@H](O)[C@@H]1O | 0.05 µM | – | – | – | – | –
2 | C[C@H]1N[C@@H](CO)[C@@H](O)[C@H]1O (racemic) | 0.015 µM | > 1000 µM | > 1 µM | – | – | IC50 [2]: > 1000 µM; IC50 [3]: > 100 µM; Ki [5]: 3 µM; Ki [7]: 53 µM
3 | C[C@@H]1N[C@H](CO)[C@H](O)[C@@H]1O | 0.0049 µM | – | – | – | – | –
4 | C[C@H]1N[C@H](CO)[C@@H](O)[C@H]1O | 1000 µM | – | 100 µM | Not Active | 2000 µM | Ki [4]: Not Active
5 | C[C@@H]1N[C@@H](CCO)[C@H](O)[C@@H]1O | 0.008 µM | > 1000 µM | > 1000 µM | – | > 1000 µM | IC50 [2]: > 1000 µM; IC50 [3]: > 100 µM; IC50 [7]: > 1000 µM
6 | C[C@@H]1N[C@@H](CO)[C@H](O)[C@@H]1O | 0.08 µM | – | – | – | – | –
7 | C[C@H]1N[C@H](CO)[C@H](O)[C@@H]1O | 9 µM | – | 1200 µM | Not Active | – | Ki ([4]; read-out: Ki): 53 µM; Ki [5]: 5 µM
8 | OC[C@H]1NC[C@@H](O)[C@H]1O | – | 14 µM | 350 µM | Not Active | 0.2 µM | IC50 [7]: 140 µM; Ki [1]: Not Active
